Measurements taken from patent publication US4146622A, “Aziridinyl quinone anti-transplanted tumor agents” (priority 1977, dated 1979).
In brackets after ≈: the same amount, converted by molar mass. Several values for one entry are separate records, joined by “and”; a condition that tells them apart may be missing. Identical values can stand only once. Entries after “also recorded” stand apart in the source; their conditions may differ.

What was measured:
[1] = test system: P388 lymphocytic leukemia; assay: Intraperitoneal (IP) lymphocytic leukemia P388 transplanted mouse tumor test; type: in vivo, murine; settings: for OD (optimum dose): IP P388, QD1-9
Excerpt: (§1) ^b Ip tumor implantation, ip QD1-9 treatment schedule.
(§2) The L1210, P388 and B16 test systems described in Table II utilize intraperitoneal (IP) tumor implantation and IP drug treatment while the Lewis lung system employs subcutaneous tumor implantation and IP treatment.
(§3) Aqueous saline solution (0.9%) was used as the drug vehicle. Normally, five doses were employed per experiment with the top dose chosen to produce toxicity. The lower doses were 50% of each preceeding dose.
(§4) Consistent with NCI antitumor test protocols, intraperitoneal (IP) administration of the drug was employed with all five tumor systems investigated. Tumor implantation was IP in the systems designated IP leukemia L1210 and P388 as well as B16 melanoma.

B16 melanocarcinoma = assay: Intraperitoneal B16 melanocarcinoma transplanted mouse tumor test; type: in vivo, murine; settings: for OD (optimum dose) / ILS (percentage increase in life span): Table IX; for OD (optimum dose): B16, QD1-9; for ILS (percentage increase in life span): B16, QD1-9, at OD; for antitumor activity: B16 melanoma
Excerpt: as §1, §2, §3, §4

ependymoblastoma = assay: Intracerebral (IC) ependymoblastoma (EM) brain tumor test; type: in vivo, murine; settings: for OD (optimum dose) / ILS (percentage increase in life span) / animals alive per 6 test animals on day of termination: Table X, IC ependymoblastoma; for OD (optimum dose): QD1-5; for ILS (percentage increase in life span) / animals alive per 6 test animals on day of termination: QD1-5, at OD; for antitumor activity: IC ependymoblastoma (EM); for animals alive per 6 test animals on day of termination / survivors (number in parentheses) EM: day 60; for survivors (number in parentheses) EM: Table XI, per 6 test animals
Excerpt: ^c Ic tumor implantation, ip QD1-5 treatment schedule.
^g Number of animals alive per six test animals on day of termination
of experiment (day 99 for expt 133 and day 60 for expt 136 and 144).
A third IC transplanted mouse tumor model, the ependymoblastoma system, was also studied. This system requires intracerebral implantation of a solid tumor fragment while the IC L1210 and IC P388 systems utilize IC inoculated ascites tumor fluid. All three use IP drug treatment however. […] Cures (survivors from the group of six mice on the last day of the experiment) are indicated. Experiments 136 and 144 were terminated on day 60. Since the number of cures was about the same, the differences in T/C values in these two experiments reflect differences in the life span of the two different sets of control animals. Experiment 133 was terminated on day 99 with a resulting higher activity value.
The hydrophilic dihydroxypropylamino compound (No. 39), which was curative in the IP L1210 and P388 leukemia systems, was active but gave a large spread in ILS values (53-186%). […] Again, its hydrophilic character may present transport problems in this IC tumor system.

[2] = Room temperature water solubility; type: physicochemical; settings: water; Table VII; room temperature, approximate; read-out: Approx. H2O Sol.
Protocol: In the following examples, all melting points are uncorrected and were recorded on a Thomas-Hoover capillary melting point apparatus. Elemental analyses were performed by NIAMDD, NIH, Bethesda, Maryland. Fluoranil, ethyleneimine and 2l -methylethyleneimine were obtained commerically. […] New compounds were identified by nmr and ir spectroscopy. In the tetraamino derivatives, the methylene protons of the aziridine rings usually occurred as a singlet at δ2.0-2.2 in CDCl3 or DMSO-d6. This absorption appeared at δ2.40 (CDCl3) for compound 11. Carbonyl absorption frequencies (nujol mull) occurred in the range 1620-1640 cm^-1 for the tetraamino compounds. Satisfactory elemental analyses (+0.4% of calculated values) are indicated by elemental symbols in Table VII. Room temperature water solubilities were determined by the incremental addition (pipet) of water to a weighed amount of compound with shaking. The solubility values in Table VII must be considered as approximate.

lymphoid leukemia L1210 [3] = assay: Intraperitoneal (IP) lymphoid leukemia L1210 transplanted mouse tumor test; type: in vivo, murine; settings: for OD (optimum dose) / animals alive per 6 test animals on day of termination / ILS (percentage increase in life span) / T - C (average weight change of test group minus control): Table VIII; for animals alive per 6 test animals on day of termination: day 30; for antitumor activity: IP L1210, tetraaminobenzoquinone series (Table VIII); for T - C (average weight change of test group minus control): day 5
Excerpt: ^(a) Day 1-9 treatment schedule (9 injections)
^(b) Day 1,5,9 treatment schedule (3 injections)
^(c) Day 1 only treatment schedule (1 injection)
^(f) Percentage increase in life span of treated animals [(treated
survival .div. control survival) × 100%] - 100%

lymphoid leukemia L1210 [4] = assay: Intracerebral (IC) lymphoid leukemia L1210 test; type: in vivo, murine
[5] = Table IX, IP P388, QD1-9, at OD
[6] = IP L1210, Day 1 only (1 injection)
[7] = IP L1210, Q4D(1,5,9) (3 injections)

SMILES: O=C1C(F)=C(N2CC2)C(=O)C(N2CCOCC2)=C1N1CC1 [Compound 31, 2,5-diaziridinyl-3-fluoro-5-morpholino-1,4-benzoquinone]
- antitumor activity ([1]; IP P388): active
- OD (optimum dose) ([1]; Table IX): 3.0 mg/kg/injection and 6.0 mg/kg/injection
- ILS (percentage increase in life span) [1, 5]: 57% and 54%
- OD (optimum dose) (B16 melanocarcinoma): 0.7 mg/kg/injection
- ILS (percentage increase in life span) (B16 melanocarcinoma): 18% and 9%
- OD (optimum dose) (ependymoblastoma): 0.8 mg/kg/injection and 1.5 mg/kg/injection
- ILS (percentage increase in life span) (ependymoblastoma): 49% and 40%
- solubility [2]: 2000 µg/mL (≈ 6820 µM)

SMILES: CNC1=C(N2CC2)C(=O)C(NC)=C(N2CC2)C1=O [Compound 34]
- OD (optimum dose) (lymphoid leukemia L1210 [3]; [6]): 0.7 mg/kg/injection
- OD (optimum dose) (lymphoid leukemia L1210 [3]; [7]): 0.8 mg/kg/injection and 0.4 mg/kg/injection
- OD (optimum dose) (lymphoid leukemia L1210 [3]; IP L1210, QD1-9 (9 injections)): 0.2 mg/kg/injection
- animals alive per 6 test animals on day of termination (lymphoid leukemia L1210 [3]; IP L1210, QD1-9, at OD): 1
- OD (optimum dose) ([1]; Table IX): 0.2 mg/kg/injection and 0.1 mg/kg/injection
- ILS (percentage increase in life span) [1, 5]: 95% and 69%
- antitumor activity (B16 melanocarcinoma): approached minimal reproducible activity
- ILS (percentage increase in life span) (B16 melanocarcinoma): 39% and 29%
- antitumor activity (lymphoid leukemia L1210 [4]; IC L1210): most active; also recorded: significant activity
- OD (optimum dose) (lymphoid leukemia L1210 [4]; Table X, IC L1210, QD1-9): 0.4 mg/kg/injection and 0.2 mg/kg/injection
- ILS (percentage increase in life span) (lymphoid leukemia L1210 [4]; Table X, IC L1210, QD1-9, at OD): 68% and 60%
- ILS (%) IC L1210 (lymphoid leukemia L1210 [4]; Table XI, outstanding activity): 68%
- antitumor activity (ependymoblastoma): among the most active materials; also recorded: highly active
- OD (optimum dose) (ependymoblastoma): 0.2 mg/kg/injection and 0.4 mg/kg/injection
- ILS (percentage increase in life span) (ependymoblastoma): 219% and 218%
- animals alive per 6 test animals on day of termination (ependymoblastoma): 5 and 4
- survivors (number in parentheses) EM (ependymoblastoma): 5
- solubility [2]: < 100 µg/mL

SMILES: CCCNC1=C(N2CC2)C(=O)C(NCCC)=C(N2CC2)C1=O [Compound 36]
- antitumor activity (lymphoid leukemia L1210 [3]): significant reduction in activity
- OD (optimum dose) (lymphoid leukemia L1210 [3]; [7]): 6.2 mg/kg/injection
- ILS (percentage increase in life span) (lymphoid leukemia L1210 [3]; IP L1210, Q4D(1,5,9), at OD): 28% and 25%
- OD (optimum dose) (lymphoid leukemia L1210 [3]; IP L1210, QD1-9 (9 injections)): 6.2 mg/kg/injection
- ILS (percentage increase in life span) (lymphoid leukemia L1210 [3]; IP L1210, QD1-9, at OD): 48% and 43%
- OD (optimum dose) ([1]; Table IX): 6.0 mg/kg/injection
- ILS (percentage increase in life span) [1, 5]: 151% and 108%
- animals alive per 6 test animals on day of termination ([1]; Table IX, IP P388, QD1-9, at OD, day 30): 2
- survivors (number in parentheses) P388 ([1]; Table XI, per 6 test animals, day 30): 2
- OD (optimum dose) (B16 melanocarcinoma): 5.0 mg/kg/injection
- ILS (percentage increase in life span) (B16 melanocarcinoma): 36% and 32%
- antitumor activity (ependymoblastoma): highly active; also recorded: still very active; also recorded: most active
- OD (optimum dose) (ependymoblastoma): 10.0 mg/kg/injection and 5.0 mg/kg/injection
- ILS (percentage increase in life span) (ependymoblastoma): 259% and 143%
- animals alive per 6 test animals on day of termination (ependymoblastoma): 2 and 1
- survivors (number in parentheses) EM (ependymoblastoma): 2
- solubility [2]: < 100 µg/mL

SMILES: CCCCNC1=C(N2CC2)C(=O)C(NCCCC)=C(N2CC2)C1=O [Compound 37]
- antitumor activity (lymphoid leukemia L1210 [3]): significant reduction in activity
- OD (optimum dose) (lymphoid leukemia L1210 [3]; [6]): 10.0 mg/kg/injection
- ILS (percentage increase in life span) (lymphoid leukemia L1210 [3]; IP L1210, Day 1 only, at OD): 11% and 5%
- OD (optimum dose) (lymphoid leukemia L1210 [3]; [7]): 12.5 mg/kg/injection and 8.2 mg/kg/injection
- ILS (percentage increase in life span) (lymphoid leukemia L1210 [3]; IP L1210, Q4D(1,5,9), at OD): 44% and 25%
- OD (optimum dose) (lymphoid leukemia L1210 [3]; IP L1210, QD1-9 (9 injections)): 10.0 mg/kg/injection and 5.0 mg/kg/injection
- ILS (percentage increase in life span) (lymphoid leukemia L1210 [3]; IP L1210, QD1-9, at OD): 36% and 30%
- OD (optimum dose) ([1]; Table IX): 5.0 mg/kg/injection and 10.0 mg/kg/injection
- ILS (percentage increase in life span) [1, 5]: 64% and 49%
- OD (optimum dose) (B16 melanocarcinoma): 10.0 mg/kg/injection and 5.0 mg/kg/injection
- antitumor activity (ependymoblastoma): has activity
- OD (optimum dose) (ependymoblastoma): 6.0 mg/kg/injection and 3.0 mg/kg/injection
- solubility [2]: < 100 µg/mL

SMILES: O=C1C(N2CCCC2)=C(N2CC2)C(=O)C(N2CCCC2)=C1N1CC1 [Compound 43, 2,5-Diaziridinyl-3,6-dipyrrolidino-1,4-benzoquinone]
- OD (optimum dose) (lymphoid leukemia L1210 [3]; [6]): 4.0 mg/kg/injection and 2.0 mg/kg/injection
- OD (optimum dose) (lymphoid leukemia L1210 [3]; [7]): 6.2 mg/kg/injection
- ILS (percentage increase in life span) (lymphoid leukemia L1210 [3]; IP L1210, Q4D(1,5,9), at OD): 43%
- T - C (average weight change of test group minus control) (lymphoid leukemia L1210 [3]; IP L1210, Q4D(1,5,9), at OD): -2.3 grams
- OD (optimum dose) (lymphoid leukemia L1210 [3]; IP L1210, QD1-9 (9 injections)): 2.0 mg/kg/injection
- ILS (percentage increase in life span) [1, 5]: 72% and 55%
- OD (optimum dose) (B16 melanocarcinoma): 2.0 mg/kg/injection
- ILS (percentage increase in life span) (B16 melanocarcinoma): 28% and 18%
- OD (optimum dose) (ependymoblastoma): 1.6 mg/kg/injection and 3.1 mg/kg/injection
- solubility [2]: 500 µg/mL (≈ 1520 µM)

SMILES: O=C1C(N2CCCCC2)=C(N2CC2)C(=O)C(N2CCCCC2)=C1N1CC1 [Compound 44]
- ILS (percentage increase in life span) (lymphoid leukemia L1210 [3]; IP L1210, Day 1 only, at OD): 16% and 8%
- ILS (percentage increase in life span) (lymphoid leukemia L1210 [3]; IP L1210, Q4D(1,5,9), at OD): 26% and 22%
- OD (optimum dose) (lymphoid leukemia L1210 [3]; IP L1210, QD1-9 (9 injections)): 10.0 mg/kg/injection
- ILS (percentage increase in life span) (lymphoid leukemia L1210 [3]; IP L1210, QD1-9, at OD): 28%
- T - C (average weight change of test group minus control) (lymphoid leukemia L1210 [3]; IP L1210, QD1-9, at OD): -2.2 grams
- OD (optimum dose) ([1]; Table IX): 5.0 mg/kg/injection and 10.0 mg/kg/injection
- ILS (percentage increase in life span) [1, 5]: 46% and 77%
- OD (optimum dose) (B16 melanocarcinoma): 5.0 mg/kg/injection and 2.5 mg/kg/injection
- ILS (percentage increase in life span) (ependymoblastoma): 68% and 46%
- solubility [2]: < 100 µg/mL

SMILES: O=C1C(N2CC2)=C(N2CCCC(O)C2)C(=O)C(N2CC2)=C1N1CCCC(O)C1 (stereo not shown) [Compound 45]
- OD (optimum dose) (lymphoid leukemia L1210 [3]; [7]): 6.0 mg/kg/injection and 4.0 mg/kg/injection
- ILS (percentage increase in life span) (lymphoid leukemia L1210 [3]; IP L1210, Q4D(1,5,9), at OD): 104% and 84%
- animals alive per 6 test animals on day of termination (lymphoid leukemia L1210 [3]; IP L1210, Q4D(1,5,9), at OD): 2
- OD (optimum dose) (lymphoid leukemia L1210 [3]; IP L1210, QD1-9 (9 injections)): 3.0 mg/kg/injection
- ILS (percentage increase in life span) (lymphoid leukemia L1210 [3]; IP L1210, QD1-9, at OD): 59% and 44%
- OD (optimum dose) ([1]; Table IX): 1.0 mg/kg/injection
- ILS (percentage increase in life span) [1, 5]: 95% and 78%
- antitumor activity (B16 melanocarcinoma): approached minimal reproducible activity
- OD (optimum dose) (B16 melanocarcinoma): 1.0 mg/kg/injection
- ILS (percentage increase in life span) (B16 melanocarcinoma): 40% and 37%
- ILS (percentage increase in life span) (ependymoblastoma): 64% and 48%
- solubility [2]: 1000 µg/mL (≈ 2570 µM)
